{"source": "patent US8940798B2", "about": "“Compounds useful for treating and/or preventing disease-associated bone loss” (Centre National de al Recherche Scientifique (CNRS), priority 2011, dated 2015)", "key": {"Dock5-DHR2": {"biological_target": "T1, Dock5-DHR2 (Mus musculus, UniProt B2RY04)", "T1 construct": "Dock5 DHR2 domain (aminoacids E1119 to L1667) was cloned into pEGFP (Clontech) or myc tagged in pRs426Met (21); expressed in transfected cells; host or cells: HEK-293T cells", "T1 sequence (B2RY04 1119-1667)": "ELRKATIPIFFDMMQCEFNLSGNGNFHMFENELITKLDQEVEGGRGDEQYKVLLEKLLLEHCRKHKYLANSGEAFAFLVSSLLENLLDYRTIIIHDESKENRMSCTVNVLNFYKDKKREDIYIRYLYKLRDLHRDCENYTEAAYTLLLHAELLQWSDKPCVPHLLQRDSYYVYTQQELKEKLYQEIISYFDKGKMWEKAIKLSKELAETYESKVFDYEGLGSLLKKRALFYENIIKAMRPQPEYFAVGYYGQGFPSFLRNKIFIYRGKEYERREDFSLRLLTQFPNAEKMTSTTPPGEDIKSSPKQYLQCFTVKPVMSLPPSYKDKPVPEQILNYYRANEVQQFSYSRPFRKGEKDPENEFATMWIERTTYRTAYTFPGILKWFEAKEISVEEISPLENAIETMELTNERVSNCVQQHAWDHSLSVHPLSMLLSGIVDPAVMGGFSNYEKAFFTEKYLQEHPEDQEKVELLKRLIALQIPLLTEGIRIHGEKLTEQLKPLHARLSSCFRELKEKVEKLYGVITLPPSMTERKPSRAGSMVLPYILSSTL", "assay": "Yeast exchange assay screening for Dock5 inhibitors", "format": "cell-based", "conditions": "screen of 2,640 compounds at 100 μM, 1% DMSO", "text": "FIGS. 5A-5H: Inhibition of bone resorption by an inhibitor of Rac1 activation by Dock5. (FIG. 5A) Principle of the yeast exchange assay used to identify inhibitors of Dock5 exchange activity. Wild type Rac1 is fused to LexA DNA binding domain (LexA) and its effector Kinectin (Kin) to GAL4 activation domain (GAD). Expression of Dock5-DHR2 activates Rac1, which binds to kinectin, leading to the expression of his3 and then yeast […] for histidine. Inhibitors of Dock5-DHR2 revert Rac1 activation. (FIG. 5B) Growth curves of yeasts expressing Rac1 and Kinectin with (open triangles) and without (dots) Dock5-DHR2, in medium complemented (plain lines) or not (dotted lines) with histidine. (FIG. 5C) Structure of N-(3,5-dichlorophenyl)benzensulfonamide (C21). (FIG. 5D) Western blots showing total and GTPbound Rac1 (upper panels) and GFP and GFP-fused Dock5-DHR2 in extracts of 293T cells treated for 1 hour with the indicated concentrations of C21 in the presence of 1% DMSO. (FIG. 5E) Western blots showing total and GTP-bound Rac1 (upper panels) and GFP and GFP-fused TrioN in extracts of 293T cells treated as in FIG. 5D. (FIG. 5F) Number of OCs (OC) after a 24-hour incubation with the indicated concentrations of C21, expressed as a % of DMSO control (0 μM C21). […] (FIG. 5G) CTx concentration in the medium of OCs on bone in the absence (O) or presence of 25 μM C21. […]"}, "GEF TrioN": {"biological_target": "T2, GEF TrioN (Homo sapiens, UniProt O75962)", "T2 construct": "expressed in transfected cells; host or cells: 293T cells", "assay": "Active (GTP-bound) Rac1 pull-down in 293T cells expressing GFP-fused TrioN", "format": "cell-based", "conditions": "HEK293T cells, treated for 1 hour, 1% DMSO, western blot", "text": "FIGS. 5A-5H: Inhibition of bone resorption by an inhibitor of Rac1 activation by Dock5. (FIG. 5A) Principle of the yeast exchange assay used to identify inhibitors of Dock5 exchange activity. Wild type Rac1 is fused to LexA DNA binding domain (LexA) and its effector Kinectin (Kin) to GAL4 activation domain (GAD). Expression of Dock5-DHR2 activates Rac1, which binds to kinectin, leading to the expression of his3 and then yeast […] for histidine. Inhibitors of Dock5-DHR2 revert Rac1 activation. (FIG. 5B) Growth curves of yeasts expressing Rac1 and Kinectin with (open triangles) and without (dots) Dock5-DHR2, in medium complemented (plain lines) or not (dotted lines) with histidine. (FIG. 5C) Structure of N-(3,5-dichlorophenyl)benzensulfonamide (C21). […] (FIG. 5F) Number of OCs (OC) after a 24-hour incubation with the indicated concentrations of C21, expressed as a % of DMSO control (0 μM C21). […] To activate Rac1, OCs at day 4 of differentiation were starved overnight in the presence of 2% serum, stimulated with 100 ng/ml M-CSF or lifted and replated onto vitronectin-coated plates for 30 minutes prior to lysis, and active Rac1 levels were measured G-LISA kit according to manufacturer's instructions (Cytoskeleton)."}}, "data": [{"smiles": "O=S(=O)(Nc1cc(Cl)cc(Cl)c1)c1ccccc1", "note": "[C21, N-(3,5-dichlorophenyl)benzenesulfonamide]", "values": [{"measurement": "Inhibition of growth of Dock5 DHR2-expressing yeasts in Histidine deprived medium without affecting growth in Histidine complemented medium", "setting": "Dock5-DHR2", "value": "identified"}, {"measurement": "Rac1 activation by the GEF TrioN", "setting": "GEF TrioN", "value": "no effect"}]}]}
